Where two headings read alike, the source gives them in different places. Values belong to the compound of their own block, whether it stands above or below them.
Columns and labels:
[1] = tested on: A2058 (human metastatic melanoma cells—Rb-negative); assay: Cellular proliferation assay (CellTiter-Glo), A2058; format: cell-based; settings: A2058, 144 h, six days
Description: (§1) Cellular proliferation assays were further conducted using the following cancer cell lines: MCF7 (breast adenocarcinoma—Rb-positive), ZR-75-1 (breast ductal carcinoma—Rb-positive), H69 (human small cell lung cancer—Rb-negative) cells, or A2058 (human metastatic melanoma cells—Rb-negative). These cells were seeded in Costar (Tewksbury, Mass.) 3093 96 well tissue culture treated white walled/clear bottom plates. Cells were treated with the compounds of Table 1 as nine point dose response dilution series from 10 uM to 1 nM. Cells were exposed to compounds and then cell viability was determined after either four (H69) or six (MCF7, ZR75-1, A2058) days as indicated using the CellTiter-Glo® luminescent cell viability assay (CTG; Promega, Madison, Wis., United States of America) following the manufacturer's recommendations. Plates were read on BioTek (Winooski, Vt.) Syngergy2 multi-mode plate reader. The Relative Light Units (RLU) were plotted as a result of variable molar concentration and data was analyzed using Graphpad (LaJolla, Calif.) Prism 5 statistical software to determine the EC50 for each compound.

[2] = tested on: HS68 cells (human skin fibroblast cell line (Rb-positive)); assay: G1 arrest (cellular G1 and S-phase) assay; format: cell-based
Description: The fraction of cells in G0-G1 DNA cell cycle versus the fraction in S-phase DNA cell cycle was determined using FlowJo 7.2.2 analysis.
The compounds listed in Table 1 were tested for their ability to arrest HS68 cells at the G1 phase of the cell cycle.

[3] = tested on: H69 (human small cell lung cancer—Rb-negative) cells; assay: Cellular proliferation assay (CellTiter-Glo), H69; format: cell-based; settings: NCI-H69, 96 h, four days
Description: as §1

CDK2/CyclinE = target: T1, CDK2/CyclinE (Homo sapiens, UniProt P24941); assay: CDK2/cyclinE kinase assay (Nanosyn, Caliper microfluidic); format: biochemical; settings: Table 2; for IC50: ATP 100 μM, read-out: CDK2/CycE IC50
T1 construct: Nanosyn (Santa Clara, Calif.) ran the assay as a service
Description: (§2) Selected compounds disclosed herein were tested in CDK4/cyclinD1, CDK2/CycA and CDK2/cyclinE kinase assays by Nanosyn (Santa Clara, Calif.) to determine their inhibitory effect on these CDKs. The assays were performed using microfluidic kinase detection technology (Caliper Assay Platform). The compounds were tested in 12-point dose-response format in singlicate at Km for ATP. Phosphoacceptor substrate peptide concentration used was 1 μM for all assays and Staurosporine was used as the reference compound for all assays.

CDK2/CyclinA = target: T2, CDK2/CyclinA (Homo sapiens, UniProt P24941); assay: CDK2/CycA kinase assay (Nanosyn, Caliper microfluidic); format: biochemical; settings: Table 2; for IC50: ATP 50 μM
T2 construct: Nanosyn (Santa Clara, Calif.) ran the assay as a service
Description: as §2, with “assays. Specifics of each assay are as described below:” for “assays.”
CDK2/CyclinA: Enzyme concentration: 0.2 nM; ATP concentration: 50 μM; Incubation time: 3 hr.

[4] = tested on: MCF7 (breast adenocarcinoma—Rb-positive); assay: Cellular proliferation assay (CellTiter-Glo), MCF7; format: cell-based; settings: Homo sapiens, MCF7, 144 h, six days
Description: as §1

CDK4/CyclinD1 = CDK4/CyclinD1 (Homo sapiens, UniProt P11802); assay: CDK4/cyclinD1 kinase assay (Nanosyn, Caliper microfluidic); format: biochemical; settings: read-out: CDK4/CycD1 IC50
Description: as §2, with “assays. Specifics of each assay are as described below:” for “assays.”
CDK4/CyclinD1: Enzyme concentration: 1 nM; ATP concentration: 200 μM; Incubation time: 10 hr.

[5] = Peripheral blood CBC on day 14 in MCF7 implant model; format: in vivo, Immunodeficient mice; settings: Day 14, 100 mg/kg PO QD
From the text: Specific cell counts analyzed were white blood cells (WBC: FIG. 21A), lymphocytes (FIG. 21B), neutrophils (FIG. 21C), monocytes (FIG. 21D), platelets (FIG. 21E), and red blood cells (FIG. 21F).

[6] = tested on: tHS68 (CDK4/6-dependent; Rb-positive); assay: Cell cycle arrest, propidium iodide flow cytometry, tHS68; format: cell-based; settings: tHS68, 24 hours, highest concentration shown (28% at baseline)
From the text: To test the ability of CDK4/6 inhibitors to induce a clean G1-arrest in Rb-positive cells, a cell based screening method was used consisting of two CDK4/6-dependent cell lines (tHS68 and WM2664; Rb-positive) and one CDK4/6-independent (A2058; Rb-negative) cell line. […] At the conclusion of the experiment, cells were harvested, fixed, and stained with propidium iodide (a DNA intercalator), which fluoresces strongly red (emission maximum 637 nm) when excited by 488 nm light. Samples were run on Dako Cyan flow cytometer and >10,000 events were collected for each sample. Data were analyzed using FlowJo 2.2 software developed by TreeStar, Inc.

[7] = tested on: bone marrow proliferating cells; assay: EdU incorporation in hematopoietic cells after i.p. dose; format: in vivo, C57BL/6 female mice; settings: single i.p. dose 50 mg/kg or 100 mg/kg
Description: At the designated time: 30 min, 1 h, 2 h, 4 h, 6 h, 8 h, 12 h, 18 h, 24 h or 48 h, mice received an injection of 5′-ethynyl-2′-deoxyuridine (EdU). Two hours post EdU injection, mice were sacrificed. As illustrated in FIGS. 12-19, cell lines were isolated and incorporation of EdU was measured. Hematopoietic cell lineages were identified using known cell lineage markers. (See, for example, Challen, et al. “Mouse Hematopoietic Stem Cell Identification and Analysis”, Cytometry A. (2009) 75(1): 14-24).

[8] = tested on: 456 (395 non-mutant) kinases; assay: DiscoveRx KINOMEscan profiling; format: binding; settings: 1000 nM
[9] = tested on: Rb phosphorylation (Ser780, Ser807/811) in tHS68; assay: Rb phosphorylation western blot, tHS68; format: cell-based; settings: tHS68, 300 nM, by 16 hours post exposure
Description: (§3) The CDK4/6-cyclin D complex is essential for progression from G1 to the S-phase of the DNA cell cycle. This complex phosphorylates the retinoblastoma tumor suppressor protein (Rb). […] Samples were lysed and protein was assayed by western blot analysis. Rb phosphorylation was measured at two sites targeted by the CDK4/6-cyclin D complex, Ser780 and Ser807/811 using species specific antibodies.

[10] = tested on: Rb phosphorylation (Ser780, Ser807/811) in WM2664; assay: Rb phosphorylation western blot, WM2664; format: cell-based; settings: WM2664, 300 nM, by 16 hours post exposure
Description: as §3

[11] = tested on: ZR-75-1 (breast ductal carcinoma—Rb-positive); assay: Cellular proliferation assay (CellTiter-Glo), ZR-75-1; format: cell-based; settings: Homo sapiens, ZR-75-1, 144 h, six days, read-out: ZR75-1 Cellular EC50
Description: as §1

[12] = tested on: ER+, HER2− locally advanced or metastatic breast cancer; settings: post-menopausal women, at time of final PFS analysis; cited from earlier work

CDK4/CyclinD1, sequence (P11802 whole entry): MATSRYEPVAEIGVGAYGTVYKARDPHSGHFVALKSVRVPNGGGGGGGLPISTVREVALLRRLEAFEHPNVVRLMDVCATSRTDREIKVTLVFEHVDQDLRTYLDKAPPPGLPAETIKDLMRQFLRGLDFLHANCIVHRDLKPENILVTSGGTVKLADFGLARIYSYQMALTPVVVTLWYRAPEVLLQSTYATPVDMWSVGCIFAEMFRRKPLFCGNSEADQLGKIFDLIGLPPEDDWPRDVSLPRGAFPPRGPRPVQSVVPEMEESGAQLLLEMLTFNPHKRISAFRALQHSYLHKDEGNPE
CDK4/CyclinD1, sequence (P24385 whole entry partner): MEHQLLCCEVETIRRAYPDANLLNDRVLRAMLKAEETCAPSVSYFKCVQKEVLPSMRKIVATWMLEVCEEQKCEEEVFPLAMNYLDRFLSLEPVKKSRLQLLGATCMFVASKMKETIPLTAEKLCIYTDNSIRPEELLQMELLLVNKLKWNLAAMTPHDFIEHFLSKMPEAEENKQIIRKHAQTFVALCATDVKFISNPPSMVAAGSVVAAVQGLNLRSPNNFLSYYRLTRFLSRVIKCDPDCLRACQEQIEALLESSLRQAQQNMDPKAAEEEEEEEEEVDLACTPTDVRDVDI

SMILES: CC(C)N1CCN(c2ccc(Nc3ncc4cc5n(c4n3)C3(CCCCC3)CNC5=O)nc2)CC1 [Compound GG]
lymphocyte count [5]: reduced cell counts | neutrophil count [5]: reduced cell counts | platelet count [5]: reduced cell counts | red blood cell count [5]: reduced cell counts | white blood cell count [5]: reduced cell counts | IC50 (CDK4/CyclinD1; Table 3): 0.00106 µM | IC50 (CDK4/CyclinD1): 0.001 µM

SMILES: CN1CCN(c2ccc(Nc3ncc4cc5n(c4n3)C3(CCCCC3)CNC5=O)nc2)CC1 [Compound T]
cells in S-phase [6]: 6% | EdU incorporation, bone marrow [7]: dose and time dependent reduction and recovery of proliferating cells | number of 395 non-mutant kinases inhibited ([8]; inhibitory threshold of 65%): 92 | share of 395 non-mutant kinases inhibited ([8]; inhibitory threshold of 65%): 23.3% | number of 395 non-mutant kinases inhibited ([8]; inhibitory threshold of 90%): 31 | share of 395 non-mutant kinases inhibited ([8]; inhibitory threshold of 90%): 7.8% | number of 395 non-mutant kinases inhibited ([8]; inhibitory threshold of 99%): 6 | share of 395 non-mutant kinases inhibited ([8]; inhibitory threshold of 99%): 1.5% | Rb phosphorylation [9]: blocks Rb phosphorylation | Rb phosphorylation [10]: blocks Rb phosphorylation

SMILES: CC1CN(c2ccc(Nc3ncc4cc5n(c4n3)C3(CCCCC3)CNC5=O)nc2)C[C@@H](C)N1CC1CC1 (stereo partly drawn) [OO]
EC50 [1]: > 3 µM | EC50 [2]: 0.095 µM | EC50 [3]: > 3 µM | IC50 (CDK2/CyclinE): 3.98 µM | IC50 (CDK2/CyclinA): 0.57 µM | EC50 [4]: 0.12 µM | EC50 [11]: 0.229 µM | IC50 (CDK4/CyclinD1; Table 2, ATP at Km (200 μM)): 0.009 µM

SMILES: CCN(CC)C1CCN(c2ccc(Nc3ncc4cc5n(c4n3)C3(CCCCC3)CNC5=O)nc2)C1 (stereo not drawn) [QQ]
EC50 [2]: 0.12 µM

SMILES: CC(C)[C@H]1CNC(=O)c2cc3cnc(Nc4ccc(N5CCNCC5)cn4)nc3n21 [UUU]
IC50 (CDK4/CyclinD1; Table 2, ATP at Km (200 μM)): 0.018 µM

SMILES: CCN(CC)C1CCN(c2ccc(Nc3ncc4cc5n(c4n3)C3(CCCC3)CNC5=O)nc2)C1 (stereo not drawn) [UU]
EC50 [2]: 0.3 µM

SMILES: O=C1NCC2(CCCC2)n2c1cc1cnc(Nc3ccc(N4CCC(N5CCOCC5)CC4)cn3)nc12 [WW]
EC50 [2]: 0.4 µM

SMILES: N#Cc1ccc(C(c2ccc(C#N)cc2)n2cncn2)cc1 [letrozole]
median OS [12]: 33.3 months

Continued, in another order:

EC50 [1]: > 3 µM | EC50 [3]: > 3 µM | IC50 (CDK2/CyclinE): 0.187 µM | Fold Selectivity (CDK2/CycE/CDK4) (CDK2/CyclinE; ratio of IC50s): 68 | IC50 (CDK2/CyclinA): 0.085 µM | Fold Selectivity (CDK2/CycA/CDK4) (CDK2/CyclinA; ratio of IC50s): 31 | EC50 [4]: 0.123 µM | IC50 (CDK4/CyclinD1; Table 2, ATP at Km (200 μM)): 0.0028 µM
SMILES: CN1CCN(C(=O)c2ccc(Cc3ncc4cc5n(c4n3)C3(CCCC3)CNC5=O)nc2)CC1 [BBB]
EC50 [2]: 0.23 µM

IC50 (CDK4/CyclinD1; Table 2, ATP at Km (200 μM)): 0.0012 µM
SMILES: CCN1[C@H](C)CN(c2ccc(Nc3ncc4cc5n(c4n3)C3(CCCCC3)CNC5=O)nc2)C[C@@H]1C [FF]

IC50 (CDK4/CyclinD1; Table 2, ATP at Km (200 μM)): 0.0007 µM
SMILES: C[C@@H]1CN(c2ccc(Nc3ncc4cc5n(c4n3)C3(CCCCC3)CNC5=O)nc2)CCN1C[C@@H](C)O [J]

IC50 (CDK4/CyclinD1; Table 2, ATP at Km (200 μM)): 0.0057 µM
SMILES: CC(C)N1CCN(c2ccc(Nc3ncc4cc5n(c4n3)C3(CCCCC3)CNC5=O)nc2)C[C@H]1C [L]

IC50 (CDK4/CyclinD1; Table 2, ATP at Km (200 μM)): 0.0032 µM
SMILES: CCOCCN1CCN(c2ccc(Nc3ncc4cc5n(c4n3)C3(CCCC3)CNC5=O)nc2)CC1 [MMM]

IC50 (CDK4/CyclinD1; Table 2, ATP at Km (200 μM)): 0.0023 µM
SMILES: C[C@H]1CN(c2ccc(Nc3ncc4cc5n(c4n3)C3(CCCCC3)CNC5=O)nc2)CCN1CCC(C)(C)C [M]

IC50 (CDK2/CyclinE): 16.5 µM | IC50 (CDK2/CyclinA): 2.64 µM | IC50 (CDK4/CyclinD1; Table 2, ATP at Km (200 μM)): 0.0008 µM
SMILES: CC1CN(c2ccc(Nc3ncc4cc5n(c4n3)C3(CCCC3)CNC5=O)nc2)CCN1CCC(C)(C)C (stereo not drawn) [PPP]

IC50 (CDK4/CyclinD1; Table 2, ATP at Km (200 μM)): 0.0017 µM
SMILES: C[C@@H](O)CN1CCN(c2ccc(Nc3ncc4cc5n(c4n3)C3(CCCCC3)CNC5=O)nc2)CC1 [S]

Reference: patent US10231969B2, “Anti-neoplastic combinations and dosing regimens using CDK4/6 inhibitor compounds to treat RB-positive tumors” (G1 Therapeutics, Inc., priority 2014, dated 2019)
